# Measurements published in US20190030018A1 (Celgene Corporation, priority 2017, published 2019).
# Test system: peripheral blood mononuclear cells (PBMCs) from myelofibrosis patients
# Assay: Colony forming assay using myelofibrosis patient samples
# Format: cell-based, human
# Description: The following samples were used:
# MF13: De novo MF, characterized by JAK2 wt, FLT3 wt, NPM1 wt, CEBPA wt
# MF14: De novo MF, characterized by JAK2 wt, CALR exon9 mut, ASXL1 wt, MPLwt
smiles,measurement,setting,value
"O=C1CCC(N2Cc3cc(CNC(=O)C(F)(F)c4ccc(Cl)cc4)ccc3C2=O)C(=O)N1 (centres unmarked) [Compound 1, 2-(4-chlorophenyl)-N-((2-(2,6-dioxopiperidin-3-yl)-1-oxoisoindolin-5-yl)methyl)-2,2-difluoroacetamide]",number of colony forming cells,"14 days in methocult media, samples MF13, MF14",reduced by Compound 1 in a dose dependent manner
same,IC50 in colony forming assay,compared with samples from healthy volunteers,lower than IC50s observed in samples from healthy volunteers
